Laboratory results reported in patent US12691124B2, “Methods of controlling and improving brain health” (ICAHN SCHOOL OF MEDICINE AT MOUNT SINAI, priority 2019, dated 2026).

Key:
R6/2 mice = test: Survival of R6/2 Huntington's mouse model; settings: 30 mg/kg i.p. daily from 6 weeks of age for 5 weeks
primary cortical neurons = test: Neuronal longevity in primary cortical neuron culture (LDH, propidium iodide, cleaved caspase 3); format: cell-based, mouse
Description: Primary Cortical Neuron Culture. Embryonic day 18 (E18) timed-pregnant female mice were anesthetized with CO2 and sacrificed by cervical dislocation. In a dissection hood, 24-26 embryos per experiment were collected through an incision of the mother's abdomen, taken out of the amniotic sacs and decapitated in ice cold Hank's Balanced Salt Solution (HBSS). Using fine scissors and forceps, brains were rapidly dissected and the cortex cleared from meninges and isolated under a dissection microscope. Cortices were collected in ice cold HBSS and kept on ice until all embryos had been dissected. In a tissue culture hood, HBSS was removed and the cortex tissue digested by 0.25% Trypsin-EDTA for 12 minutes at 37° C., followed by DNase1 treatment for 10 minutes at 37° C. The tissue was dissociated by serial trituration with a 25 ml serological pipette, followed by trituration with 10 ml and 5 ml serological pipettes. Cell suspension was washed once with DMEM medium, supplemented with 10% FBS and 1% penicillin/streptomycin and passed through a […] cell strainer before counted on a hemocytometer. Single cells were seeded on poly-D-lysine (0.1 mg ml-1) coated wells at a density of 1×10^6 cells per well on a 12-well plate. Cells were grown in Neurobasal medium, complemented with B27 supplement, N2 supplement, and 0.5 mM L-glutamine and maintained at 37° C. in 5% CO2 for 1 week. Cultures were treated with DMSO (0.2%), I-BET858 (1 μM, 0.2% DMSO), BDNF (50 ng/ml), or BDNF+I-BET858 for 2 and 12 h on day 7 in vitro. Cultures were washed with phosphate-buffered saline (PBS) on ice and processed for RNA isolation using TRIzol/Chloroform extraction.
LDH Assay. LDH activity was measured using the Pierce LDH Cytotoxicity Assay Kit. Culture media was incubated with an equal volume of LDH master mix and incubated for 30 minutes at room temperature in the dark. After, the same volume of stop reagent was added and the absorbance was measured at 490 and 680 nm. Maximum LDH measurements were obtained by adding lysis buffer to release the total amount of LDH in the sample. LDH release is calculated as a percent of the maximum.
Propidium Iodide Assay. Propidium iodide (1 mg/ml, Life Technologies #P3566) was added to each culture well at a final concentration of 0.5 μg/ml. Cultures were incubated for 30 minutes at 37 degrees then washed with PBS. Cells were then fixed with 4% paraformaldehyde in PBS for 15 minutes at room temperature. After fixation, cells were washed with PBS and then mounted using mounting media containing DAPI.
In order to understand the effect of chronic BET inhibition on neuronal survival, primary cortical mouse neurons were cultured in the presence or absence of the brain permeable BET inhibitor IBET858 (1 μM). To quantify cell death over time, the levels of lactate dehydrogenase (LDH) were measured in culture media which is presumably released during cell death as the membranes become permeable. […] The observed decrease in LDH activity after BET inhibition occurs in a dose-dependent manner. LDH activity, which is an indirect measure of cell death, may be affected by other factors such as changes in metabolism or expression of the LDH genes. Therefore in order to confirm these findings, propidium iodide (PI) staining was used to directly quantify the number of dead neurons over time. This membrane impermeable dye increases in fluorescence 20-30 fold after intercalating DNA265. […] To give context to the magnitude of this effect on survival, this experiment was repeated with a direct comparison to the mTOR inhibitor, rapamycin (20 nM).

young mice = settings: cited from earlier work
C57bl/6 mice = test: Brain gene expression in IBET858 treated mice; format: in vivo, mouse
Description: In vivo I-BET858 treatment. IBET858 was developed and validated by GlaxoSmithKline. I-BET858 solutions used for in vivo studies (3 mg/ml) were prepared in 10% Kleptose buffer with 5% DMSO (pH 6.5) and maintained at 4° C. I-BET858 was made fresh daily, buffers were made fresh each week. 30 mg/kg I-BET858 or vehicle (Kleptose buffer pH=6.5) was delivered by i.p injection. For acute treatment, 6-week-old mice received a single I-BET858 injection. […] Gene expression and behavioral changes were assessed in 6 weeks old mice at 4 h (acute, n=8-10 for behavior, n=2 for gene expression analysis) or 12 h (chronic, n=10 for behavior, n=2 for gene expression analysis) after the (last) I-BET858 injection, respectively.
RNA Isolation. For in vitro gene expression analysis, neuronal culture plates were washed once with PBS, and TRIzol was added directly to cultures to isolate RNA (n=3 per group). For in vivo gene expression analysis, mice were anesthetized with CO2 and decapitated. The striata from two control and acute or chronic I-BET treated mice were rapidly dissected on ice and frozen in liquid nitrogen. RNA extraction from frozen samples was performed using TRIzol/Chloroform according to manufacturer's instructions (Invitrogen Corporation, Carlsbad, CA). RNA was precipitated overnight at −80° C. in isopropanol with 0.15 M sodium acetate, washed twice with 70% ethanol, air-dried, and resuspended in RNase-free water. RNA samples were purified using Rneasy Micro columns (Qiagen) with on-column DNAse treatment as specified by manufacturer. RNA integrity was assayed using nanodrop and RNA Pico chip on Bioanalyzer 2100 (Agilent, Santa Clara, CA) for quality RIN>9.
IBET treatment induces neuroprotective gene expression changes in the hippocampus of mice in vivo (FIG. 23A).

[1] = IBET858 treated mice compared to vehicle

CC(=O)N1c2ccc(-c3ccc(CN4CCCCC4)cc3)cc2[C@H](Nc2ccccc2)CC1C (stereo in doubt) [IBET858]
survival (R6/2 mice): rescued survival | dose dependence of decrease in LDH activity (primary cortical neurons): dose-dependent | neuron survival over time, propidium iodide assay (primary cortical neurons; 1 μM): survive significantly longer than control | number of cells positive for cleaved caspase 3 (primary cortical neurons; 1 μM): decreased | LDH activity in culture media over time (primary cortical neurons; 1 μM, from day 16 in vitro): significantly less LDH activity | neuronal lifespan, IBET858 compared with rapamycin (primary cortical neurons; IBET858 1 μM, rapamycin 20 nM): to the same extent as rapamycin if not more | neuronal gene expression in young mice (young mice; mouse, in vivo): selective suppression of neuronal gene expression | behavioural phenotype of young mice (young mice; pharmacological suppression of BET proteins in the brain of young mice): development of an autism-like syndrome | Casp3 gene expression levels (C57bl/6 mice; 5 week IBET858 treatment in vivo): unaffected | autophagy and proteostasis genes (C57bl/6 mice; [1]): increased | genes involved in metabolic pathways (C57bl/6 mice; [1]): downregulated
